Source: US20260000642A1 (Tay Therapeutics Limited, priority 2022, published 2026)

Key:
[1] = Sprague-Dawley rat pharmacokinetics (IV and PO); format: in vivo; conditions: male Sprague-Dawley rats, cassette mode, Method 1; for IV T1/2: IV 1 mg/kg; for PO F (%) / bioavailability: PO 5 mg/kg (IV 1 mg/kg); for bioavailability: rat, plasma, read-out: PO F (%)
Text: BET protein inhibitors with a long half-life and good oral bioavailability in in vivo DMPK parameters are promising oral drug candidates. Some of the exemplary compounds of the current disclosure have a long half-life and good oral bioavailability in in vivo DMPK parameters in the Sprague-Dawley rat following intravenous (IV) and oral (PO) dosing. The experimental methods and results (Table 5) are provided hereinafter.
Sprague-Dawley Rat Pharmacokinetics, Method 1
Compounds were formulated in 5% DMSO, 40% PEG-400, 55% Milli-Q water at a concentration of 0.2 mg/mL for IV and at 0.5 mg/mL for PO. Two male Sprague-Dawley rats per arm were dosed with up to 5 compounds in cassette mode, which each compound being dosed at 1 mg/kg IV and 5 mg/kg PO. Blood was sampled at various timepoints and plasma isolated. 50 μL of plasma with 5 μL of blank Sprague-Dawley rat plasma were added to 200 μL of acetonitrile containing IS mixture. The samples were vortexed for 30 s. After centrifugation at 4 degrees Celsius, 3900 rpm for 15 min, the supernatant was diluted 3 times with water. 20 μL of diluted supernatant was injected into the LC/MS/MS system for quantitative analysis and concentration of analyte determined by comparison with matrix matched standard curve. WinNonlin (Phoenix™, version 8.3) or other similar software may be used for pharmacokinetic calculations.

[2] = system: collagen-induced arthritis in Lewis rats; assay: Collagen-induced arthritis (CIA) model in rats: body weight, paw volume, clinical scores, clinical observations; conditions: for Average animal paw volume percent change / Average detailed clinical score, left forelimb / Average detailed clinical score, left hind limb / Average detailed clinical score, right forelimb / Average detailed clinical score, right hind limb / Average detailed clinical score, score / Mean overall clinical score ± SD / animals showing signs of disease (of 8): CIA rats; for Mean animal paw volume (mL) ± SD: group mean, CIA + reference compound (Groups 3, 4); for animals showing signs of disease (of 8): daily P.O. For Detailed Clinical Scores, left forelimb: key of the grades not given here. For Detailed Clinical Scores, left hind limb: key of the grades not given here. For Detailed Clinical Scores, right forelimb: key of the grades not given here. For Detailed Clinical Scores, right hind limb: key of the grades not given here. For Detailed Clinical Scores, score: key of the grades not given here.
[3] = system: collagen-induced arthritis in Lewis rats; assay: CIA model: histopathologic analysis of H&E-stained hind limbs; format: in vivo, Lewis rat; conditions: CIA rats
Text: Hind limbs were collected following euthanasia, with the left limb being used for H&E staining.
H&E-stained slides of designated tissues from animals were transferred to an independent pathologist for microscopic evaluation (SPFBio). Samples were assigned the histologic grades based on the severity of change from tissue where CIA was not induced. Histology grades assigned were as follows: grade 1 (minimal change), grade 2 (mild change), grade 3 (moderate change), grade 4 (marked change), and grade 5 (severe change).
Moderate inflammation was also associated with increased edema fluid, fibrin, and cellular debris. Marked mixed cell inflammation was characterized by dense, widespread accumulations of neutrophils and macrophages with lesser number of lymphocytes within one or more joint spaces, synovium and periarticular soft tissues. Marked inflammation was also associated with abundant edema fluid, fibrin, and cellular debris.
Marked granulation tissue (pannus) was associated with inflammation and was characterized by widespread fibrovascular connective tissue that expanded/replaced the periarticular soft tissues of one or more joints, extended into/expanded joint spaces, was contiguous with areas of erosion/ulcer in articular cartilage and/or increased eroded surface of bone, and variably extended along the diaphysis.
Instances of minimal increased eroded surface were not associated with fragments of bone contiguous and/or surrounded by granulation tissue. […] In some areas, increased eroded surfaces were contiguous with areas of erosion/ulcer in the articular cartilages. Instance of marked increased eroded surface were often associated with fragments of bone contiguous with and/or surrounded by granulation tissue.
This observation was typically most pronounced at joint margins (transition zone). The ulceration was often associated with inflammation and granulation tissue extending through the defect to the subchondral bone.
Marked increased periosteal bone (periosteal bone formation) was characterized by extensive areas of increased bone matrix and numerous prominent osteoblasts lining trabecular surfaces along the metaphysis and/or diaphysis of one or more bones. In some areas, increased periosteal bone was contiguous with increased eroded surface and/or erosion/ulcer at articular cartilage.

## CCNC(=O)c1cc(OC(C)c2ccc(Cl)cc2)c(C(=O)NC)[nH]1 (single isomer, unassigned) [Example 18, 3-(1-(4-chlorophenyl)ethoxy)-N^5-ethyl-N^2-methyl-1H-pyrrole-2,5-dicarboxamide]
[1]
  IV T1/2: 66 min
  PO F (%): 30%

## CNC(=O)c1[nH]c(C(=O)N[C@H]2CC[C@H](O)CC2)cc1OC(C)c1ccc(Cl)cc1F (single isomer, unassigned) [Example 38, 3-(1-(4-chloro-2-fluorophenyl)ethoxy)-N^5-(trans-4-hydroxycyclohexyl)-N^2-methyl-1H-pyrrole-2,5-dicarboxamide]
[1]
  IV T1/2: 84 min
  PO F (%): 66%

## CNC(=O)c1[nH]c(C(=O)NC2CCC2)cc1OC(C)c1ccccc1 (single isomer, unassigned) [Example 102, N^5-cyclobutyl-N^2-methyl-3-(1-phenylethoxy)-1H-pyrrole-2,5-dicarboxamide]
[1]
  bioavailability: 13%

## CCNC(=O)c1cc(OC(C)c2ccccc2F)c(C(=O)NC)[nH]1 (single isomer, unassigned) [Example 20, N^5-ethyl-3-(1-(2-fluorophenyl)ethoxy)-N^2-methyl-1H-pyrrole-2,5-dicarboxamide]
[1]
  IV T1/2: 24 min
  PO F (%): 46%

## CNC(=O)c1[nH]c(C(=O)N[C@H]2CC[C@H](O)CC2)cc1OC(C)c1ccccc1 (single isomer, unassigned) [Example 98, N^5-(trans-4-hydroxycyclohexyl)-N^2-methyl-3-(1-phenylethoxy)-1H-pyrrole-2,5-dicarboxamide]
[1]
  bioavailability: 31%

## CCNC(=O)c1cc(OC(C)c2ccc(Cl)cc2F)c(C(=O)NC)[nH]1 (single isomer, unassigned) [Example 41, 3-(1-(4-chloro-2-fluorophenyl)ethoxy)-N^5-ethyl-N^2-methyl-1H-pyrrole-2,5-dicarboxamide]
[1]
  IV T1/2: 18 min
  PO F (%): 69%

## C[C@@H]1C[C@H]2[C@@H]3CCC4=CC(=O)C=C[C@]4(C)[C@@]3(F)[C@@H](O)C[C@]2(C)[C@@]1(O)C(=O)CO [Dex]
[2]; Day 0, L hind paw
  Average animal paw volume percent change: 0.00%
[2]; Day 0, L paw
  Mean animal paw volume (mL) ± SD: 1.33 mL
[2]; Day 0, R hind paw
  Average animal paw volume percent change: 0.00%
[2]; Day 0, R paw
  Mean animal paw volume (mL) ± SD: 1.33 mL
[2]; Day 0
  Average detailed clinical score, left forelimb: 0.00
  Average detailed clinical score, left hind limb: 0.00
  Average detailed clinical score, right forelimb: 0.00
  Average detailed clinical score, right hind limb: 0.00
  Average detailed clinical score, score: 0.00
  Mean overall clinical score ± SD: 0 ± 0
[2]; Day 6, L paw
  Mean animal paw volume (mL) ± SD: 1.29 mL
[2]; Day 6, R paw
  Mean animal paw volume (mL) ± SD: 1.29 mL
[2]; Day 6
  Average detailed clinical score, left forelimb: 0.00
  Average detailed clinical score, left hind limb: 0.00
  Average detailed clinical score, right forelimb: 0.00
  Average detailed clinical score, right hind limb: 0.00
  Average detailed clinical score, score: 0.00
  Mean overall clinical score ± SD: 0 ± 0
[2]; Day 12, L paw
  Mean animal paw volume (mL) ± SD: 1.27 mL
[2]; Day 12, R paw
  Mean animal paw volume (mL) ± SD: 1.26 mL
[2]; Day 12
  Average detailed clinical score, left forelimb: 0.00
  Average detailed clinical score, left hind limb: 0.00
  Average detailed clinical score, right forelimb: 0.00
  Average detailed clinical score, right hind limb: 0.00
  Average detailed clinical score, score: 0.00
  Mean overall clinical score ± SD: 0 ± 0
[2]; Day 13, L paw
  Mean animal paw volume (mL) ± SD: 1.28 mL
[2]; Day 13, R paw
  Mean animal paw volume (mL) ± SD: 1.28 mL
[2]; Day 13
  Average detailed clinical score, left forelimb: 0.00
  Average detailed clinical score, left hind limb: 0.00
  Average detailed clinical score, right forelimb: 0.00
  Average detailed clinical score, right hind limb: 0.00
  Average detailed clinical score, score: 0.00
  Mean overall clinical score ± SD: 0 ± 0
[2]; Day 14, L hind paw
  Average animal paw volume percent change: −4.60%
[2]; Day 14, L paw
  Mean animal paw volume (mL) ± SD: 1.27 mL
[2]; Day 14, R paw
  Mean animal paw volume (mL) ± SD: 1.26 mL
[2]; Day 14
  Average detailed clinical score, left forelimb: 0.00
  Average detailed clinical score, left hind limb: 0.00
  Average detailed clinical score, right forelimb: 0.00
  Average detailed clinical score, right hind limb: 0.00
  Average detailed clinical score, score: 0.00
  Mean overall clinical score ± SD: 0 ± 0
[2]; Day 15, L paw
  Mean animal paw volume (mL) ± SD: 1.26 mL
[2]; Day 15, R paw
  Mean animal paw volume (mL) ± SD: 1.26 mL
[2]; Day 15
  Average detailed clinical score, left forelimb: 0.00
  Average detailed clinical score, left hind limb: 0.00
  Average detailed clinical score, right forelimb: 0.00
  Average detailed clinical score, right hind limb: 0.00
  Average detailed clinical score, score: 0.00
  Mean overall clinical score ± SD: 0 ± 0
[2]; Day 18, L paw
  Mean animal paw volume (mL) ± SD: 1.29 mL
[2]; Day 18, R paw
  Mean animal paw volume (mL) ± SD: 1.29 mL
[2]; Day 18
  Average detailed clinical score, left forelimb: 0.00
  Average detailed clinical score, left hind limb: 0.00
  Average detailed clinical score, right forelimb: 0.00
  Average detailed clinical score, right hind limb: 0.00
  Average detailed clinical score, score: 0.00
  Mean overall clinical score ± SD: 0 ± 0
[2]; Day 19, L paw
  Mean animal paw volume (mL) ± SD: 1.29 mL
[2]; Day 19, R paw
  Mean animal paw volume (mL) ± SD: 1.28 mL
[2]; Day 19
  Average detailed clinical score, left forelimb: 0.00
  Average detailed clinical score, left hind limb: 0.00
  Average detailed clinical score, right forelimb: 0.00
  Average detailed clinical score, right hind limb: 0.00
  Average detailed clinical score, score: 0.00
  Mean overall clinical score ± SD: 0 ± 0
[2]; Day 21, L paw
  Mean animal paw volume (mL) ± SD: 1.28 mL
[2]; Day 21, R paw
  Mean animal paw volume (mL) ± SD: 1.29 mL
[2]; Day 21
  Average detailed clinical score, left forelimb: 0.00
  Average detailed clinical score, left hind limb: 0.00
  Average detailed clinical score, right forelimb: 0.00
  Average detailed clinical score, right hind limb: 0.00
  Average detailed clinical score, score: 0.00
  Mean overall clinical score ± SD: 0 ± 0

## CNC(=O)c1cc(C(=O)NC2CC2)cn(Cc2ccccc2)c1=O [GSK620]
[2]; day 12
  animals showing signs of disease (of 8): No animals
[2]; day 13
  animals showing signs of disease (of 8): 1/8
[2]; day 14
  animals showing signs of disease (of 8): 5/8
[2]; day 15
  animals showing signs of disease (of 8): 7/8
[2]; day 18
  animals showing signs of disease (of 8): all animals
[2]; Day 0, CIA, per animal ID
  Detailed Clinical Scores, left forelimb: 0
  Detailed Clinical Scores, left hind limb: 0
  Detailed Clinical Scores, right forelimb: 0
  Detailed Clinical Scores, right hind limb: 0
  Detailed Clinical Scores, score: 0
[2]; Day 6, CIA, per animal ID
  Detailed Clinical Scores, left forelimb: 0
  Detailed Clinical Scores, right forelimb: 0
[2]; Day 12, CIA, per animal ID
  Detailed Clinical Scores, left forelimb: 0
  Detailed Clinical Scores, right forelimb: 0
[3]; daily P.O. (Group 4)
  erosion/ulcer in the articular cartilage: mild to moderate
  granulation tissue (pannus): mild to moderate
  increased eroded surface of bone (bone resorption): minimal to moderate
  increased periosteal bone (periosteal bone formation): mild to moderate
  mixed cell inflammation: moderate
[3]; daily P.O. for 21 days
  pathologic observations after microscopic evaluation (overall): at a lower level relative to samples from animals in the CIA-induced group
